The Ki is the equilibrium dissociation constant of an inhibitor or competing ligand from its target.

Data on 12 molecules can be found in patent US9580396B2, “C6-spiro iminothiadiazine dioxides as BACE inhibitors, compositions, and their use” (Merck Sharp & Dohme Corp., priority 2012, dated 2017).

Assay [1] has as its target purified human autoBACE-2 (Homo sapiens (Human), UniProt Q9Y5Z0). Put plainly: BACE-2 Assay (BACE-HTRF assay). It counts as biochemical. The following applies: Ki calculated from IC50 using the Cheng-Prusoff equation; QSY7-EISEVNLDAEFC-Eu-amide substrate, pH 5.0; read-out: BACE2 Ki. As to the method: Inhibitor IC50s at purified human autoBACE-2 are determined in a time-resolved endpoint proteolysis assay that measures hydrolysis of the QSY7-[…]-Eu-amide FRET peptide substrate (BACE-HTRF assay). […] DMSO is present at 5% final concentration in the assay. Following laser excitation of sample wells at 320 nm, the fluorescence signal at 620 nm is collected for 400 ms following a 50 μs delay on a RUBYstar HTRF plate reader (BMG Labtechnologies). Raw RFU data is normalized to maximum (1.0 nM BACE/DMSO) and minimum (no enzyme/DMSO) RFU values. […] The Ki values are calculated from the IC50 using the Cheng-Prusoff equation.

For assay [2], the target named is soluble human BACE1 catalytic domain (Homo sapiens (Human), UniProt P56817). The assay is described as follows: BACE1 HTRF FRET Assay. Format: biochemical. The following applies: Ki calculated from IC50 using the Cheng-Prusoff equation; QSY7-APPswe-Eu substrate, pH 5.0. The source says: Na^+-Acetate pH 5.0; 1% Brij-35; Glycerol; Dimethyl Sulfoxide (DMSO); Recombinant human soluble BACE1 catalytic domain (>95% pure); APP Swedish mutant peptide substrate (QSY7-APP^swe-Eu): QSY7-EISEVNLDAEFC-Europium-amide.
A homogeneous time-resolved FRET assay can be used to determine IC50 values for inhibitors of the soluble human BACE1 catalytic domain. This assay monitors the increase of 620 nm fluorescence that resulted from BACE1 cleavage of an APPswedish APP^swe mutant peptide FRET substrate (QSY7-EISEVNLDAEFC-Europium-amide). This substrate contains an N-terminal QSY7 moiety that serves as a quencher of the C-terminal Europium fluorophore (620 nm Em). In the absence of enzyme activity, 620 nm fluorescence is low in the assay and increased linearly over 3 hours in the presence of uninhibited BACE1 enzyme Inhibition of BACE1 cleavage of the QSY7-APP^swe-Eu substrate by inhibitors is manifested as a suppression of 620 nm fluorescence.
Varying concentrations of inhibitors at 3× the final desired concentration in a volume of 10 ul are preincubated with purified human BACE1 catalytic domain (3 nM in 10 μl) for 30 minutes at 30° C. in reaction buffer containing 20 mM Na-Acetate pH 5.0, 10% glycerol, 0.1% Brij-35 and 7.5% DSMO. Reactions are initiated by addition of 10 μl of 600 nM QSY7-APP^swe-Eu substrate (200 nM final) to give a final reaction volume of 30 μl in a 384 well Nunc HTRF plate. The reactions are incubated at 30° C. for 1.5 hours. The 620 nm fluorescence is then read on a Rubystar HTRF plate reader (BMG Labtechnologies) using a 50 millisecond delay followed by a 400 millisecond acquisition time window Inhibitor IC50 values are derived from non-linear regression analysis of concentration response curves. Ki values are then calculated from IC50 values using the Cheng-Prusoff equation using a previously determined […] of 8 μM for the QSY7-APP^swe-Eu substrate at BACE1.

soluble human BACE1 catalytic domain, sequence (P56817 75-416): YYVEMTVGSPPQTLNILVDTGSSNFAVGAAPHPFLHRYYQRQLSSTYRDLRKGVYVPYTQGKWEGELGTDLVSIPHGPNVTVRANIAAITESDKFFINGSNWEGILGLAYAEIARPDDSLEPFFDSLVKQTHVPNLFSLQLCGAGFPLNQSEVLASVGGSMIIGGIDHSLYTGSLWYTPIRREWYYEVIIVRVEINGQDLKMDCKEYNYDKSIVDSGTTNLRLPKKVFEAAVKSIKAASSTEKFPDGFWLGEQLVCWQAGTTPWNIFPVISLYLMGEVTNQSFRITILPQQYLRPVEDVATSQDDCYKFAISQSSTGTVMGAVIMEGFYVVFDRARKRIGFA

In the case of `Cc1cc(C#N)cnc1C(=O)Nc1ccc2c(c1)[C@]1(CCC2)CS(=O)(=O)N(C)C(=N)N1` [Example 5q], the figures for the Ki in assay [1] and in assay [2] were 0.017 µM and 0.009 µM, respectively.

As to `COc1ccc(C(=O)Nc2ccc3c(c2)[C@]2(CCO3)CS(=O)(=O)N(C)C(=N)N2)nc1` [Example 1b], the Ki was 0.13 µM in assay [1] and 0.233 µM in assay [2].

With `Cc1cc(C#N)cnc1C(=O)Nc1ccc2c(c1)[C@]1(CCO2)CS(=O)(=O)N(C)C(=N)N1` [Example 2k], the Ki in assay [1] is 0.026 µM; in assay [2] it was 0.015 µM.

On to `CN1C(=N)N[C@@]2(CCOc3ccc(NC(=O)c4ccc(C#N)cn4)cc32)CS1(=O)=O` [Example 2c], for which the figures for the Ki in assay [1] and in assay [2] were 0.051 µM and 0.026 µM, respectively.

`COc1cnc(C(=O)Nc2ccc3c(c2)[C@]2(CCC3)CS(=O)(=O)N(C)C(=N)N2)c(C)c1` [Example 5o]: the Ki in assay [1] is 0.017 µM; in assay [2], 0.119 µM.

As for `COCC(=O)Nc1ccc2c(c1)[C@]1(CCO2)CS(=O)(=O)N(C)C(=N)N1` [Example 1c], the Ki was 0.341 µM in assay [1] and 2.01 µM in assay [2].

Turning to `CN1C(=N)N[C@@]2(CCCc3ccc(NC(=O)c4ccc(OC(F)F)cn4)cc32)CS1(=O)=O` [Example 5c], the Ki was 0.126 µM in assay [1] and 0.059 µM in assay [2].

Turning to `CN1C(=N)N[C@@]2(CCCc3ccc(NC(=O)c4cn5cc(C#N)ccc5n4)cc32)CS1(=O)=O` [Example 5a], the values for the Ki in assay [1] and in assay [2] were 1.13 µM and 0.636 µM, respectively.

For the molecule `COc1ccc(C(=O)Nc2ccc3c(c2)[C@]2(CCC3)CS(=O)(=O)N(C)C(=N)N2)nc1` [Example 4b], the Ki was 0.067 µM in assay [1] and 0.228 µM in assay [2].

Take `Cc1nc(C(=O)Nc2ccc3c(c2)[C@]2(CCC3)CS(=O)(=O)N(C)C(=N)N2)no1` [Example 5f]: the Ki in assay [1] is 0.016 µM; in assay [2] it was 0.314 µM.

`CN1C(=N)N[C@@]2(CCOc3ccc(NC(=O)c4ccc(Cl)cn4)cc32)CS1(=O)=O` [Example 1a]: the Ki was 0.017 µM in assay [1] and 0.07 µM in assay [2].

As for `CN1C(=N)N[C@@]2(CCCc3ccc(NC(=O)c4cnsn4)cc32)CS1(=O)=O` [Example 5t], the figures for the Ki in assay [1] and in assay [2] were 0.056 µM and 0.264 µM, respectively.
